In patent US11890288B2, “Sulfonamide or sulfinamide compound having effect of inducing BRD4 protein degradation and pharmaceutical use thereof” (MITSUBISHI TANABE PHARMA CORPORATION, priority 2020, dated 2024):

Assays:
[1] = tested on: human prostate cancer LNCaP cells; test: Cytotoxic action on LNCaP cells (WST-8, 96 hr); format: cell-based; conditions: 96 hr culture
How it was run: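 Viability read by WST-8 after 96 hr compound exposure of cells seeded overnight in 10% FBS/RPMI1640 (37° C, 5% CO2). Survival normalised to compound-free wells as 100%; IC50 obtained by straight-line interpolation between the two concentrations flanking 50% survival.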

[2] = tested on: human acute myeloid leukemia MV-4-11 cell; test: Cytotoxic action on MV-4-11 cells (WST-8, 96 hr); format: cell-based; conditions: MV4-11, MV-4-11, 96 hr
Procedure: (§1) The cytotoxic action of the compound of the present invention against human cancer cells was evaluated in vitro. In this experiment, (+)-JQ1 (Nature volume 468, pages 1067-1073 (23 Dec. 2010)) known to have an inhibitory activity on the binding of BRD4 protein and a ligand therefor was used as a positive control drug. Respective cells were suspended in 10% FBS/RPMI1640, seeded in a 96 well plate and cultured at 5% CO2, 37° C. overnight. A test compound dissolved in DMSO was diluted with 10% FBS/RPMI1640 and added and the cells were further cultured for 96 hr. After culturing, the viable cell number was measured using a cell number measurement WST-8 kit (Kishida Chemical Co., Ltd.). As a control, the measurement was performed under conditions free of the test compound. The cytotoxic activity of the compound of the present invention against human prostate cancer LNCaP cells is shown in IC50 value in Table 1. The IC50 value is a concentration of the compound showing 50% cell survival rate when the cell survival rate thereof under compound untreated condition is 100%. It was calculated from the straight line connecting the cell survival rate at two points enclosing the 50% cell survival rate and the compound concentration. […]

[3] = tested on: human T-cell leukemia Jurkat cells; test: Cytotoxic action on Jurkat cells (WST-8, 96 hr); format: cell-based
Procedure: as §1

[4] = tested on: human Burkitt lymphoma Raji cell; test: Cytotoxic action on Raji cells (WST-8, 96 hr); format: cell-based
Procedure: as §1

[5] = tested on: human castration-resistant prostate cancer PC-3 cell; test: Cytotoxic action on PC-3 cells (WST-8, 96 hr); format: cell-based; conditions: PC-3, 96 hr
Procedure: as §1

[6] = tested on: human AR-V7 positive castration-resistant prostate cancer 22Rv1 cell; test: Cytotoxic action on 22Rv1 cells (WST-8, 96 hr); format: cell-based; conditions: 22Rv1, 96 hr
Procedure: as §1

[7] = tested on: human ovarian cancer A2780 cell; test: Cytotoxic action on A2780 cells (WST-8, 96 hr); format: cell-based; conditions: A2780, 96 hr
Procedure: as §1

[8] = tested on: human cisplatin-resistant ovarian cancer SK-OV-03 cell; test: Cytotoxic action on SK-OV-03 cells (WST-8, 96 hr); format: cell-based; conditions: SK-OV-03, 96 hr
Procedure: as §1

[9] = tested on: human bladder cancer 5637 cell; test: Cytotoxic action on 5637 cells (WST-8, 96 hr); format: cell-based; conditions: 5637, 96 hr
Procedure: as §1

[10] = tested on: human uterus cervix cancer HeLa cell; test: Cytotoxic action on HeLa cells (WST-8, 96 hr); format: cell-based
Procedure: as §1

[11] = tested on: human non-small cell lung cancer NCI-H2126 cell; test: Cytotoxic action on NCI-H2126 cells (WST-8, 96 hr); format: cell-based; conditions: NCI-H2126, 96 hr
Procedure: as §1

[12] = tested on: human EGFRT790M mutation-positive non-small cell lung cancer NCI-H1975 cell; test: Cytotoxic action on NCI-H1975 cells (WST-8, 96 hr); format: cell-based; conditions: NCI-H1975, 96 hr
Procedure: as §1

[13] = tested on: human small cell lung cancer NCI-H82 cell; test: Cytotoxic action on NCI-H82 cells (WST-8, 96 hr); format: cell-based; conditions: NCI-H82, 96 hr
Procedure: as §1

[14] = tested on: human large cell lung cancer NCI-H460 cell; test: Cytotoxic action on NCI-H460 cells (WST-8, 96 hr); format: cell-based; conditions: NCI-H460, 96 hr
Procedure: as §1

[15] = tested on: human colon cancer HCT116 cell; test: Cytotoxic action on HCT116 cells (WST-8, 96 hr); format: cell-based; conditions: HCT-116, HCT116, 96 hr
Procedure: as §1

BRD4 protein = BRD4 protein (Homo sapiens (Human), UniProt O60885); test: BRD4 protein degradation inducing action in LNCaP cells (immunofluorescence, 6 hr); format: cell-based; conditions: anti-BRD4 fluorescence intensity
How it was run: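 Read-out is BRD4 immunofluorescence intensity (560/572 nm) after 6 hr compound treatment of LNCaP cells in 10% FBS/RPMI1640, with fixation, permeabilization and anti-BRD4 staining. Linear interpolation between the two concentrations flanking 50% of untreated intensity gives DC50.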

[16] = Maximum tolerated dose in rats (single tail vein administration); conditions: rat, in vivo, intravenous, male CD (SD) rats
Procedure: The maximum tolerated dose (MTD) in rats was determined for the compound of the present invention.

Which results are given for `COC(=O)C[C@@H]1N=C(c2ccc(-c3ccc(C(=O)NCc4ccc(S(=O)(=O)Nc5ccc(C)c6c(C#N)c[nH]c56)cc4)cc3)cc2)c2c(sc(C)c2C)-n2c(C)nnc21` [Example 1, methyl [(6S)-4-{4′-[({4-[(3-cyano-4-methyl-1H-indol-7-yl)sulfamoyl]phenyl}methyl)carbamoyl][1,1′-biphenyl]-4-yl}-2,3,9-trimethyl-6H-thieno[3,2-f][1,2,4]triazolo[4,3-a][1,4]diazepin-6-yl]acetate]?
IC50 [1]: 0.14 nM; IC50 [2]: 0.16 nM; IC50 [3]: 1.3 nM; IC50 [4]: 5.3 nM; IC50 [5]: 0.88 nM; IC50 [6]: 0.71 nM; IC50 [7]: 0.19 nM; IC50 [8]: 41 nM; IC50 [9]: 1.9 nM; IC50 [10]: 27 nM; IC50 [11]: 6.6 nM; IC50 [12]: 3.6 nM; IC50 [13]: 21 nM; IC50 [14]: 28 nM; IC50 [15]: 8.8 nM; DC50 (BRD4 protein): 0.15 nM; MTD [16]: > 10 mg/kg
